Assay results from patent US7220587B2 (priority 2001, dated 2007).

Columns and labels:
[1] = system: Wild-type Landsberg seedlings; experiment: taxol treatment of dark-grown wild-type seedlings; type: in vivo, Arabidopsis thaliana; conditions: 10 days in the dark
Source text: (§1) The role of ethylene in the reduction of hypocotyl and root elongation has not yet been elucidated. One possibility relates to the theory that cortical microtubules associated with the plasma membrane may direct the cellulose synthase complex that is responsible for cell wall deposition. The drug taxol acts to stabilize microtubules by inhibiting microtubule depolymerization (Schiff and Horwitz 1981) and may inhibit the shift in cortical microtubules upon ethylene treatment,(Heinstein and Chang 1994). To determine if taxol could affect the ethylene insensitivity phenotype of ein6/een mutants, wild-type and ein6/een mutants were given a 10 day taxol treatment in the dark (Example 12).
(§2) Wild-type Landsberg seedlings or ein6/een mutant seedlings were grown in the presence of either 0 μM, 0.1 μM, or 1 μM taxol for 10 days in the dark, following the method of Roman and Ecker (Phil. Trans. R. Soc. Lond. B. 350: 75–81, 1995, which is herein incorporated by reference in its entirety). […] Hypocotyl cells of the taxol-treated tissue appeared shorter and rounder than wild-type cells. […] From these observations, it has been concluded that the ein6/een double mutation, (or possibly the een single mutation) is responsible for the taxol sensitivity phenotype.

[2] = system: ein6/een mutant seedlings; experiment: taxol treatment of dark-grown ein6/een double mutant seedlings; type: in vivo, Arabidopsis thaliana
Source text: as §1, §2

CC(=O)O[C@H]1C(=O)[C@@]2(C)[C@H]([C@H](OC(=O)c3ccccc3)[C@]3(O)C[C@H](OC(=O)[C@H](O)[C@@H](NC(=O)c4ccccc4)c4ccccc4)C(C)=C1C3(C)C)[C@]1(OC(C)=O)CO[C@@H]1C[C@@H]2O [taxol]
seedling size compared to untreated seedlings ([1]; 0.1 μM taxol): did not have an altered size
effect on seedling elongation ([1]; 1 μM taxol): inhibition of elongation
seedling phenotype (length) ([2]; 0.1 μM taxol, 10 days in the dark): shortened phenotype
seedling length compared to non-treated ein6/een mutant seedlings ([2]; 1 μM taxol, 10 days in the dark): significantly shorter
sensitivity of mutants to taxol ([2]; low levels (0.1 μM) of taxol, 10 day treatment in the dark): especially sensitive
